Measurements: US20250339409A1, “USES OF PAN BET INHIBITORS” (VYNE THERAPEUTICS INC., priority 2021, published 2025)
Where “and” joins values, the source holds several entries; their conditions need not be identical. Identical values can stand only once. Marks after values point to notes of the source that are not given here.

System: anti collagen antibodies induced arthritis (ACAIA)
Assay: Anti collagen antibodies induced arthritis (ACAIA) in mice, intra-articular treatment: paw thickness, arthritis clinical score, body weight;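 further: mouse arthritis induced by IV anti-collagen mAb on day 0 plus IP LPS on day 4, with body weight, caliper paw thickness and 0-4 paw score tracked against a day 0 baseline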

With `Cn1cc(-c2cccc(O)c2Oc2ccccc2)c2cc[nH]c2c1=O` [BETi1] the “Paw thickness of treated leg (Avg.)” value (0.1 mg/kg IA (Group 4), Day 7) was 2.82 mm, the “Paw thickness of untreated leg (Avg.)” value (0.1 mg/kg IA (Group 4), Day 7) was 2.87 mm and the “Percent change of weight per day (Av)” value (0.1 mg/kg IA (Group 4), Day 7) was 88.48%. For the same compound, the “Δ clinical score untreated -treated, Avg. Delta” value (0.1 mg/kg IA (Group 4), Day 7) was 0.00 points, the “Clinical score of treated leg (Avg.)” value (0.1 mg/kg IA (Group 4), Day 8) was 2.29 points and the “Paw thickness Avg. Delta untreated -treated” value (0.1 mg/kg IA (Group 4), Day 8) was −0.05 mm. The “Paw thickness of treated leg (Avg.)” value (0.1 mg/kg IA (Group 4), Day 8) was 2.86 mm, the “Paw thickness of untreated leg (Avg.)” value (0.1 mg/kg IA (Group 4), Day 8) was 2.81 mm and the “Percent change of weight per day (Av)” value (0.1 mg/kg IA (Group 4), Day 8) was 87.72%. The “Δ clinical score untreated -treated, Avg. Delta” value (0.1 mg/kg IA (Group 4), Day 8) was 0.00 points, the “Clinical score of treated leg (Avg.)” value (0.1 mg/kg IA (Group 4), Day 10) was 2.43 points and the “Paw thickness Avg. Delta untreated -treated” value (0.1 mg/kg IA (Group 4), Day 10) was 0.05 mm. For the same compound, the “Paw thickness of treated leg (Avg.)” value (0.1 mg/kg IA (Group 4), Day 10) was 2.94 mm, the “Paw thickness of untreated leg (Avg.)” value (0.1 mg/kg IA (Group 4), Day 10) was 2.99 mm and the “Percent change of weight per day (Av)” value (0.1 mg/kg IA (Group 4), Day 10) was 88.75%. The “Δ clinical score untreated -treated, Avg. Delta” value (0.1 mg/kg IA (Group 4), Day 10) was 0.14 points, the “Clinical score of treated leg (Avg.)” value (0.1 mg/kg IA (Group 4), Day 12) was 2.57 points and the “Paw thickness Avg. Delta untreated -treated” value (0.1 mg/kg IA (Group 4), Day 12) was −0.05 mm. For the same compound, the “Paw thickness of treated leg (Avg.)” value (0.1 mg/kg IA (Group 4), Day 12) was 3.10 mm, the “Paw thickness of untreated leg (Avg.)” value (0.1 mg/kg IA (Group 4), Day 12) was 3.05 mm and the “Percent change of weight per day (Av)” value (0.1 mg/kg IA (Group 4), Day 12) was 93.51%. The “Δ clinical score untreated -treated, Avg. Delta” value (0.1 mg/kg IA (Group 4), Day 12) was 0.43 points, the “Clinical score of treated leg (Avg.)” value (1 mg/kg IA (Group 3), Baseline) was 0.00 points and the “Paw thickness Avg. Delta untreated -treated” value (1 mg/kg IA (Group 3), Baseline) was 0.04 mm. The “Paw thickness of treated leg (Avg.)” value (1 mg/kg IA (Group 3), Baseline) was 2.05 mm, the “Paw thickness of untreated leg (Avg.)” value (1 mg/kg IA (Group 3), Baseline) was 2.09 mm and the “Percent change of weight per day (Av)” value (1 mg/kg IA (Group 3), Baseline) was 100.00%. For the same compound, the “Percent change of weight per day (individual animal)” value (1 mg/kg IA (Group 3), Baseline) was 100%, the “Δ clinical score untreated -treated, Avg. Delta” value (1 mg/kg IA (Group 3), Baseline) was 0.00 points and the “Clinical score of treated leg (Avg.)” value (1 mg/kg IA (Group 3), Day 3) was 0.00 points. For the same compound, the “Paw thickness Avg. Delta untreated -treated” value (1 mg/kg IA (Group 3), Day 3) was 0.02 mm, the “Paw thickness of treated leg (Avg.)” value (1 mg/kg IA (Group 3), Day 3) was 2.11 mm and the “Paw thickness of untreated leg (Avg.)” value (1 mg/kg IA (Group 3), Day 3) was 2.13 mm. The “Percent change of weight per day (Av)” value (1 mg/kg IA (Group 3), Day 3) was 99.97%, the “Percent change of weight per day (individual animal)” value (1 mg/kg IA (Group 3), Day 3) was 100.9804% and 98.22% and 102.4631% and 98.49% and 97.67% and the “Δ clinical score untreated -treated, Avg. Delta” value (1 mg/kg IA (Group 3), Day 3) was 0.00 points. The “Clinical score of treated leg (Avg.)” value (1 mg/kg IA (Group 3), Day 4) was 0.00 points, the “Paw thickness Avg. Delta untreated -treated” value (1 mg/kg IA (Group 3), Day 4) was −0.03 mm and the “Paw thickness of treated leg (Avg.)” value (1 mg/kg IA (Group 3), Day 4) was 2.22 mm. For the same compound, the “Paw thickness of untreated leg (Avg.)” value (1 mg/kg IA (Group 3), Day 4) was 2.19 mm, the “Percent change of weight per day (Av)” value (1 mg/kg IA (Group 3), Day 4) was 101.40% and the “Percent change of weight per day (individual animal)” value (1 mg/kg IA (Group 3), Day 4) was 101.9608% and 100% (2×) and 103.9409% and 100.9302%. For the same compound, the “Δ clinical score untreated -treated, Avg. Delta” value (1 mg/kg IA (Group 3), Day 4) was 0.00 points, the “Clinical score of treated leg (Avg.)” value (1 mg/kg IA (Group 3), Day 5) was 0.00 points and the “Paw thickness Avg. Delta untreated -treated” value (1 mg/kg IA (Group 3), Day 5) was 0.04 mm. The “Paw thickness of treated leg (Avg.)” value (1 mg/kg IA (Group 3), Day 5) was 2.13 mm, the “Paw thickness of untreated leg (Avg.)” value (1 mg/kg IA (Group 3), Day 5) was 2.17 mm and the “Percent change of weight per day (Av)” value (1 mg/kg IA (Group 3), Day 5) was 91.68%. The “Percent change of weight per day (individual animal)” value (1 mg/kg IA (Group 3), Day 5) was 93.63% and 89.78% and 94.58% and 88.94% and 89.3%, the “Δ clinical score untreated -treated, Avg. Delta” value (1 mg/kg IA (Group 3), Day 5) was 0.00 points and the “Clinical score of treated leg (Avg.)” value (1 mg/kg IA (Group 3), Day 6) was 0.14 points. The “Paw thickness Avg. Delta untreated -treated” value (1 mg/kg IA (Group 3), Day 6) was 0.23* mm, the “Paw thickness of treated leg (Avg.)” value (1 mg/kg IA (Group 3), Day 6) was 2.27* mm and the “Paw thickness of untreated leg (Avg.)” value (1 mg/kg IA (Group 3), Day 6) was 2.50 mm. For the same compound, the “Percent change of weight per day (Av)” value (1 mg/kg IA (Group 3), Day 6) was 89.39%, the “Percent change of weight per day (individual animal)” value (1 mg/kg IA (Group 3), Day 6) was 91.67% and 82.67% and 92.61% and 90.45% and 89.77% and the “Δ clinical score untreated -treated, Avg. Delta” value (1 mg/kg IA (Group 3), Day 6) was 0.57 points. The “Clinical score of treated leg (Avg.)” value (1 mg/kg IA (Group 3), Day 7) was 0.71 points, the “Paw thickness Avg. Delta untreated -treated” value (1 mg/kg IA (Group 3), Day 7) was 0.56* mm and the “Paw thickness of treated leg (Avg.)” value (1 mg/kg IA (Group 3), Day 7) was 2.25** mm. For the same compound, the “Paw thickness of untreated leg (Avg.)” value (1 mg/kg IA (Group 3), Day 7) was 2.80 mm, the “Percent change of weight per day (Av)” value (1 mg/kg IA (Group 3), Day 7) was 89.93% and the “Percent change of weight per day (individual animal)” value (1 mg/kg IA (Group 3), Day 7) was 89.71% and 84% and 93.1% and 89.45% and 90.23%. The “Δ clinical score untreated -treated, Avg. Delta” value (1 mg/kg IA (Group 3), Day 7) was 0.71 points, the “Clinical score of treated leg (Avg.)” value (1 mg/kg IA (Group 3), Day 8) was 1.00 points and the “Paw thickness Avg. Delta untreated -treated” value (1 mg/kg IA (Group 3), Day 8) was 0.56 mm. For the same compound, the “Paw thickness of treated leg (Avg.)” value (1 mg/kg IA (Group 3), Day 8) was 2.36* mm, the “Paw thickness of untreated leg (Avg.)” value (1 mg/kg IA (Group 3), Day 8) was 2.92 mm and the “Percent change of weight per day (Av)” value (1 mg/kg IA (Group 3), Day 8) was 91.22%. The “Percent change of weight per day (individual animal)” value (1 mg/kg IA (Group 3), Day 8) was 90.69% and 88% and 92.61% and 89.95%, the “Δ clinical score untreated -treated, Avg. Delta” value (1 mg/kg IA (Group 3), Day 8) was 1.43 points and the “Clinical score of treated leg (Avg.)” value (1 mg/kg IA (Group 3), Day 10) was 0.71 points. The “Paw thickness Avg. Delta untreated -treated” value (1 mg/kg IA (Group 3), Day 10) was 0.74 mm, the “Paw thickness of treated leg (Avg.)” value (1 mg/kg IA (Group 3), Day 10) was 2.21* mm and the “Paw thickness of untreated leg (Avg.)” value (1 mg/kg IA (Group 3), Day 10) was 2.95 mm. For the same compound, the “Percent change of weight per day (Av)” value (1 mg/kg IA (Group 3), Day 10) was 93.11%, the “Percent change of weight per day (individual animal)” value (1 mg/kg IA (Group 3), Day 10) was 92.16% and 94.67% and 93.6% and 93.47% and the “Δ clinical score untreated -treated, Avg. Delta” value (1 mg/kg IA (Group 3), Day 10) was 1.29 points. For the same compound, the “Clinical score of treated leg (Avg.)” value (1 mg/kg IA (Group 3), Day 12) was 0.57 points, the “Paw thickness Avg. Delta untreated -treated” value (1 mg/kg IA (Group 3), Day 12) was 0.80 mm and the “Paw thickness of treated leg (Avg.)” value (1 mg/kg IA (Group 3), Day 12) was 2.18 mm. For the same compound, the “Paw thickness of untreated leg (Avg.)” value (1 mg/kg IA (Group 3), Day 12) was 2.98 mm, the “Percent change of weight per day (Av)” value (1 mg/kg IA (Group 3), Day 12) was 97.09* percent and the “Percent change of weight per day (individual animal)” value (1 mg/kg IA (Group 3), Day 12) was 95.1% and 100% and 98.03% and 96.98% and 93.49%. For the same compound, the “Δ clinical score untreated -treated, Avg. Delta” value (1 mg/kg IA (Group 3), Day 12) was 1.86 points, the “reduction of arthritis score, treated vs untreated paw” value (1 mg/kg IA, day 12) was 76.5% and the “reduction of paw thickness, treated vs untreated paw” value (1 mg/kg IA, day 12) was 26.8%.
